According to patent publication US20230150974A1 (Foghorn Therapeutics Inc., priority 2020, published 2023):

Columns and labels:
HiBit-BRG1 = target: T1, HiBit-BRG1 (Homo sapiens, UniProt P51532); assay: HiBit-BRG1 cell-based degradation assay (Nano-Glo HiBiT Lytic Detection); details: HeLa cells expressing HiBit-BRG1 and LgBit, 24 h; for DC50: read-out: BRG1 HiBit Degradation IC50; for Dmax: read-out: BRG1 HiBit Degradation Maximum (%)
T1 construct: expressed in transfected cells
Procedure, shortened: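 Seed 5000 HeLa HiBit-BRG1/LgBit cells per well; treat 24 h; equilibrate 15 min at room temperature; add Nano-Glo HiBiT lytic reagent, shake 10 min, read luminescence. Percent degradation is scaled between DMSO and 2 μM reference degrader wells.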

HiBiT-BRM = target: T2, HiBiT-BRM (Homo sapiens, UniProt P51531); assay: HiBiT-BRM cell-based degradation assay (Nano-Glo HiBiT Lytic Detection); details: HeLa cells expressing HiBiT-BRM, 24 h; for DC50: read-out: BRM HiBit Degradation IC50
T2 construct: expressed in transfected cells
T2 sequence (P51531 whole entry): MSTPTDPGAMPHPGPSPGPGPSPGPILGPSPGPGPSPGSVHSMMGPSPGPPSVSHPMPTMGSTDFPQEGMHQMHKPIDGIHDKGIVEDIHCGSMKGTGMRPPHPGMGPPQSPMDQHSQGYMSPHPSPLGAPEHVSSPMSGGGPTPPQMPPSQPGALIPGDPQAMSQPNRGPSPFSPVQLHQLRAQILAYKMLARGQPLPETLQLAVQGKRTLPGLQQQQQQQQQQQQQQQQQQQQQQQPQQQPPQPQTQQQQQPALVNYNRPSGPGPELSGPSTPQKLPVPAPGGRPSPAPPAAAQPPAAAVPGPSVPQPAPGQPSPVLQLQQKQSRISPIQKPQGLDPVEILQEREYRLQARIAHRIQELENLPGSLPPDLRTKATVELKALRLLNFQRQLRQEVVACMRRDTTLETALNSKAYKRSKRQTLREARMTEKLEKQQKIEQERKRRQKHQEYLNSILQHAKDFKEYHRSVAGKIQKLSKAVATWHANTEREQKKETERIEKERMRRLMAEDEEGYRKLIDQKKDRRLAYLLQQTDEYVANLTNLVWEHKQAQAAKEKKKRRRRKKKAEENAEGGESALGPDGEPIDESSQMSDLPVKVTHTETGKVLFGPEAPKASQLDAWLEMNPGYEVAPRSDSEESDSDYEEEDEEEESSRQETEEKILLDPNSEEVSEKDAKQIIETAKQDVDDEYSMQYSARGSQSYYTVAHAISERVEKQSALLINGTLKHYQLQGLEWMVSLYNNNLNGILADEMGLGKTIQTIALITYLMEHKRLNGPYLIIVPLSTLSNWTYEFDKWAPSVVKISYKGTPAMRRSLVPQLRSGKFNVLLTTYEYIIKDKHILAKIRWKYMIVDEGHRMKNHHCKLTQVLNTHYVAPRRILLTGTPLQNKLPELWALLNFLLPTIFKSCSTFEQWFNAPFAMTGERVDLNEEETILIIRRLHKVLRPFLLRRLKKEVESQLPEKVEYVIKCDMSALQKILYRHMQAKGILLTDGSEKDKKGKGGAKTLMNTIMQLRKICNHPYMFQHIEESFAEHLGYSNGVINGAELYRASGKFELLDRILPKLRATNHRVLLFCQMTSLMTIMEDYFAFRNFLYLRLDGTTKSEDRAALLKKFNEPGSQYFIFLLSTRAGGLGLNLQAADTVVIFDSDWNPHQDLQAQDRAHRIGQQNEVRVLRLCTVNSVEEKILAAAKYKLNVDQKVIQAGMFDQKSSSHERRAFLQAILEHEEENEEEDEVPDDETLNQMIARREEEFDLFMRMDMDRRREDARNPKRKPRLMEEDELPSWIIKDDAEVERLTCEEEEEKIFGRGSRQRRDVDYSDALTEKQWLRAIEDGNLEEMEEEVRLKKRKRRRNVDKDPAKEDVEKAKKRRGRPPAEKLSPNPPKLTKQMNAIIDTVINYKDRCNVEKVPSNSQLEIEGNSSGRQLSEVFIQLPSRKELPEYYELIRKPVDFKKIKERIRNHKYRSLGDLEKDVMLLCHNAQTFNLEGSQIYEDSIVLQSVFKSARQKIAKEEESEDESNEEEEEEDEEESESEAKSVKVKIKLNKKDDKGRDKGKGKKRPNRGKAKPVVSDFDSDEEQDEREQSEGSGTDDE
Procedure, shortened: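 HeLa cells stably expressing HiBiT-tagged BRM were treated for 24 h, then lysed with LgBiT-containing Nano-Glo reagent and luminescence read. % degradation scaled between DMSO (high control) and 2 μM reference BRM/BRG1 degrader (low control).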

T1 sequence (P51532 whole entry): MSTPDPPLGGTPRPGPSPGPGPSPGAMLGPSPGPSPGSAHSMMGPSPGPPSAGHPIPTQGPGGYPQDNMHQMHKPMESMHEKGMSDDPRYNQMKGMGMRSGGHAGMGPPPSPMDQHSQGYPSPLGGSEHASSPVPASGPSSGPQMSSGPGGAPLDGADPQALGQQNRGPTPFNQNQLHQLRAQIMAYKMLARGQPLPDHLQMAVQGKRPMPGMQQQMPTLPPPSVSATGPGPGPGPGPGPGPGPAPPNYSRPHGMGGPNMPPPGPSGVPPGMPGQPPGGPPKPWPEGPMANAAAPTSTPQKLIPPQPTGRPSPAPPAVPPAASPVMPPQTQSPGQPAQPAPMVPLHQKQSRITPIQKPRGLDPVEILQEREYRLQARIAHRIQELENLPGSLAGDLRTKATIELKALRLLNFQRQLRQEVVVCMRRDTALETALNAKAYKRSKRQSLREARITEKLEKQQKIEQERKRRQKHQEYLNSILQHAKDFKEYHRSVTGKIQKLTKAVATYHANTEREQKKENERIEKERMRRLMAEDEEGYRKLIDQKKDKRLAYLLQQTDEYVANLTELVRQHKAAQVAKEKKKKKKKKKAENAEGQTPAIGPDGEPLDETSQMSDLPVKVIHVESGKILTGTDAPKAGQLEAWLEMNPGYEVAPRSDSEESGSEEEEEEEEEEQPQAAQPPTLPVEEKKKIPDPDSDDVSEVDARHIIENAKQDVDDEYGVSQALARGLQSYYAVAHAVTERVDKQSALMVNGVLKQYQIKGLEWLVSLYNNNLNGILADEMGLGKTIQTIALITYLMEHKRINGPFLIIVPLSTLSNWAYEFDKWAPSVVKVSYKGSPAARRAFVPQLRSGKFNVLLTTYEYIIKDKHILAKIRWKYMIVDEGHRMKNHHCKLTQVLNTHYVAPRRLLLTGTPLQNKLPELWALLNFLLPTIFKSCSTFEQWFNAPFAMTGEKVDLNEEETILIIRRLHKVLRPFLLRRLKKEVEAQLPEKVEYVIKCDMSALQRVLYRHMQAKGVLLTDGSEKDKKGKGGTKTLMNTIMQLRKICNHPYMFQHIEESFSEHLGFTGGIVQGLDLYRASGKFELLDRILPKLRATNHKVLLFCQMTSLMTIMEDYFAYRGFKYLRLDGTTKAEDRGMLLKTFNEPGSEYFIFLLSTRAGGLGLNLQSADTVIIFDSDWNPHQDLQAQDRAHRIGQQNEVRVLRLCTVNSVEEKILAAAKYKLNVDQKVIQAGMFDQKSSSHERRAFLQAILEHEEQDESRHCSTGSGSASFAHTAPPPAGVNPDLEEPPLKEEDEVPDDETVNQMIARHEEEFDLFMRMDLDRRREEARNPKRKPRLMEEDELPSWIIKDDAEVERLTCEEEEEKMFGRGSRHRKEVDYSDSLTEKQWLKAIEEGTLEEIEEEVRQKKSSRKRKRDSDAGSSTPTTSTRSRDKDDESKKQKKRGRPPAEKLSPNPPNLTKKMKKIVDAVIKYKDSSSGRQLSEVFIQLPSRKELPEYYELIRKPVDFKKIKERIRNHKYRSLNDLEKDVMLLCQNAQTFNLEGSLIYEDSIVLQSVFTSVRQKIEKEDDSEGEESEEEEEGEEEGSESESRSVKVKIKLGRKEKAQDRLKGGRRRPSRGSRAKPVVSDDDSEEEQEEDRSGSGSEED

Row | Structure (SMILES) | DC50 (HiBit-BRG1) [nM] | Dmax (HiBit-BRG1) [%] | BRM HiBit Degradation Maximum (%) (HiBiT-BRM) | DC50 (HiBiT-BRM) [nM]
1 | Cc1ncsc1-c1ccc(CNC(=O)[C@@H]2C[C@@H](O)CN2C(=O)[C@@H](NC(=O)CCCN2CCN(CCOc3cc(N4[C@@H]5CC[C@H]4CN(c4cc(-c6ccccc6O)nnc4N)C5)ccn3)CC2)C(C)(C)C)cc1 [Compound 242, (2S,4R)-1-((2S)-2-(4-(4-(2-((4-(3-(3-amino-6-(2-hydroxyphenyl)pyridazin-4-yl)-3,8-diazabicyclo[3.2.1]octan-8-yl)pyridin-2-yl)oxy)ethyl)piperazin-1-yl)butanamido)-3,3-dimethylbutanoyl)-4-hydroxy-N-(4-(4-methylthiazol-5-yl)benzyl)pyrrolidine-2-carboxamide] | > 1000 | < 50 | A (“A” indicates maximum degradation ≥75%) | > 100
2 | Cc1ncsc1-c1ccc(CNC(=O)[C@@H]2C[C@@H](O)CN2C(=O)[C@@H](NC(=O)CN2CCC(O[C@H]3C[C@H](Oc4cc(N5[C@@H]6CC[C@H]5CN(c5cc(-c7ccccc7O)nnc5N)C6)ccn4)C3)CC2)C(C)(C)C)cc1 [Compound 243, (2S,4R)-1-((2S)-2-(2-(4-((1r,3S)-3-((4-(3-(3-amino-6-(2-hydroxyphenyl)pyridazin-4-yl)-3,8-diazabicyclo[3.2.1]octan-8-yl)pyridin-2-yl)oxy)cyclobutoxy)piperidin-1-yl)acetamido)-3,3-dimethylbutanoyl)-4-hydroxy-N-(4-(4-methylthiazol-5-yl)benzyl)pyrrolidine-2-carboxamide, tri-formic acid] | > 10 | > 75 | A (“A” indicates maximum degradation ≥75%) | < 10
3 | Cc1ncsc1-c1ccc(CNC(=O)[C@@H]2C[C@@H](O)CN2C(=O)[C@@H](NC(=O)CN2CCC(OC3CCN(CCC(=O)NCc4ccc(CCOc5cc(-c6ccccc6O)nnc5N)cc4)CC3)CC2)C(C)(C)C)cc1 [Compound 244, (2S,4R)-1-((S)-2-(2-(4-((1-(3-((4-(2-((3-amino-6-(2-hydroxyphenyl)pyridazin-4-yl)oxy)ethyl)benzyl)amino)-3-oxopropyl)piperidin-4-yl)oxy)piperidin-1-yl)acetamido)-3,3-dimethylbutanoyl)-4-hydroxy-N-(4-(4-methylthiazol-5-yl)benzyl)pyrrolidine-2-carboxamide] | > 1000 | < 50 | A (“A” indicates maximum degradation ≥75%) | > 1000
4 | Cc1ncsc1-c1ccc(CNC(=O)[C@@H]2C[C@@H](O)CN2C(=O)[C@@H](NC(=O)CCN2CCC(OC3CN(C(=O)c4ccc(CCOc5cc(-c6ccccc6O)nnc5N)cc4)C3)CC2)C(C)(C)C)cc1 [Compound 245, (2S,4R)-1-((S)-2-(3-(4-((1-(4-(2-((3-amino-6-(2-hydroxyphenyl)pyridazin-4-yl)oxy)ethyl)benzoyl)azetidin-3-yl)oxy)piperidin-1-yl)propanamido)-3,3-dimethylbutanoyl)-4-hydroxy-N-(4-(4-methylthiazol-5-yl)benzyl)pyrrolidine-2-carboxamide] | > 1000 | < 50 | B (“B” indicates maximum degradation ≥50%) | > 1000
5 | Cc1ncsc1-c1ccc([C@H](C)NC(=O)[C@@H]2C[C@@H](O)CN2C(=O)[C@@H](NC(=O)CCCCCCCCCCCCCC(=O)NCc2ccc(CCOc3cc(-c4ccccc4O)nnc3N)cc2)C(C)C)cc1 [Compound 246, N1-(4-(2-((3-amino-6-(2-hydroxyphenyl)pyridazin-4-yl)oxy)ethyl)benzyl)-N15-((S)-1-((2S,4R)-4-hydroxy-2-(((S)-1-(4-(4-methylthiazol-5-yl)phenyl)ethyl)carbamoyl)pyrrolidin-1-yl)-3-methyl-1-oxobutan-2-yl)pentadecanediamide] | > 1000 | < 50 | A (“A” indicates maximum degradation ≥75%) | > 10
6 | Cc1ncsc1-c1ccc([C@H](C)NC(=O)[C@@H]2C[C@@H](O)CN2C(=O)[C@@H](NC(=O)CCCCCCCCCCC(=O)NCc2ccc(CCOc3cc(-c4ccccc4O)nnc3N)cc2)C(C)(C)C)cc1 [Compound 247, N1-(4-(2-((3-amino-6-(2-hydroxyphenyl)pyridazin-4-yl)oxy)ethyl)benzyl)-N12-((S)-1-((2S,4R)-4-hydroxy-2-(((S)-1-(4-(4-methylthiazol-5-yl)phenyl)ethyl)carbamoyl)pyrrolidin-1-yl)-3,3-dimethyl-1-oxobutan-2-yl)dodecanediamide] | > 1000 | < 50 | A (“A” indicates maximum degradation ≥75%) | > 10
7 | Cc1ncsc1-c1ccc([C@H](C)NC(=O)[C@@H]2C[C@@H](O)CN2C(=O)[C@@H](NC(=O)CCCCCCCCCCCCC(=O)NCc2ccc(CCOc3cc(-c4ccccc4O)nnc3N)cc2)C(C)(C)C)cc1 [Compound 248, N1-(4-(2-((3-amino-6-(2-hydroxyphenyl)pyridazin-4-yl)oxy)ethyl)benzyl)-N14-((S)-1-((2S,4R)-4-hydroxy-2-(((S)-1-(4-(4-methylthiazol-5-yl)phenyl)ethyl)carbamoyl)pyrrolidin-1-yl)-3,3-dimethyl-1-oxobutan-2-yl)tetradecanediamide] | > 1000 | < 50 | A (“A” indicates maximum degradation ≥75%) | > 10
8 | Cc1ncsc1-c1ccc([C@H](C)NC(=O)[C@@H]2C[C@@H](O)CN2C(=O)[C@@H](NC(=O)CCN2CCC(OC3CCN(CCC(=O)NCc4ccc(CCOc5cc(-c6ccccc6O)nnc5N)cc4)CC3)CC2)C(C)(C)C)cc1 [Compound 249, (2S,4R)-1-((S)-2-(3-(4-((1-(3-((4-(2-((3-amino-6-(2-hydroxyphenyl)pyridazin-4-yl)oxy)ethyl)benzyl)amino)-3-oxopropyl)piperidin-4-yl)oxy)piperidin-1-yl)propanamido)-3,3-dimethylbutanoyl)-4-hydroxy-N-((S)-1-(4-(4-methylthiazol-5-yl)phenyl)ethyl)pyrrolidine-2-carboxamide] | > 1000 | < 50 | A (“A” indicates maximum degradation ≥75%) | > 1000
9 | Cc1ncsc1-c1ccc([C@H](C)NC(=O)[C@@H]2C[C@@H](O)CN2C(=O)[C@@H](NC(=O)CCN2CCC3(CCN(CCC(=O)NCc4ccc(CCOc5cc(-c6ccccc6O)nnc5N)cc4)CC3)CC2)C(C)(C)C)cc1 [Compound 250, (2S,4R)-1-((S)-2-(3-(9-(3-((4-(2-((3-amino-6-(2-hydroxyphenyl)pyridazin-4-yl)oxy)ethyl)benzyl)amino)-3-oxopropyl)-3,9-diazaspiro[5.5]undecan-3-yl)propanamido)-3,3-dimethylbutanoyl)-4-hydroxy-N-((S)-1-(4-(4-methylthiazol-5-yl)phenyl)ethyl)pyrrolidine-2-carboxamide] | > 1000 | < 50 | B (“B” indicates maximum degradation ≥50%) | > 1000
10 | Cc1ncsc1-c1ccc([C@H](C)NC(=O)[C@@H]2C[C@@H](O)CN2C(=O)[C@@H](c2cc(OCCN(C)Cc3ccc(CCOc4cc(-c5ccccc5O)nnc4N)cc3)no2)C(C)C)cc1 [Compound 251, (2S,4R)-1-((R)-2-(3-(2-((4-(2-((3-amino-6-(2-hydroxyphenyl)pyridazin-4-yl)oxy)ethyl)benzyl)(methyl)amino)ethoxy)isoxazol-5-yl)-3-methylbutanoyl)-4-hydroxy-N-((S)-1-(4-(4-methylthiazol-5-yl)phenyl)ethyl)pyrrolidine-2-carboxamide] | < 10 | > 75 | A (“A” indicates maximum degradation ≥75%) | < 10
11 | Cc1ncsc1-c1ccc(CNC(=O)[C@@H]2C[C@@H](O)CN2C(=O)[C@@H](NC(=O)CCN2CCC3(CCN(CCC(=O)NCc4ccc(CCOc5cc(-c6ccccc6O)nnc5N)cc4)CC3)CC2)C(C)(C)C)cc1 [Compound 252, (2S,4R)-1-((S)-2-(3-(9-(3-((4-(2-((3-amino-6-(2-hydroxyphenyl)pyridazin-4-yl)oxy)ethyl)benzyl)amino)-3-oxopropyl)-3,9-diazaspiro[5.5]undecan-3-yl)propanamido)-3,3-dimethylbutanoyl)-4-hydroxy-N-(4-(4-methylthiazol-5-yl)benzyl)pyrrolidine-2-carboxamide] | > 1000 | < 50 | C (“C” indicates maximum degradation <50%) | > 1000
12 | Cc1ncsc1-c1ccc([C@H](C)NC(=O)[C@@H]2C[C@@H](O)CN2C(=O)[C@@H](c2cc(OCCN3CCC(OC4CN(C(=O)c5ccc(CCOc6cc(-c7ccccc7O)nnc6N)cc5)C4)CC3)no2)C(C)C)cc1 [Compound 253, (2S,4R)-1-((R)-2-(3-(2-(4-((1-(4-(2-((3-amino-6-(2-hydroxyphenyl)pyridazin-4-yl)oxy)ethyl)benzoyl)azetidin-3-yl)oxy)piperidin-1-yl)ethoxy)isoxazol-5-yl)-3-methylbutanoyl)-4-hydroxy-N-((S)-1-(4-(4-methylthiazol-5-yl)phenyl)ethyl)pyrrolidine-2-carboxamide] | > 1000 | < 50 | A (“A” indicates maximum degradation ≥75%) | < 10
